Test results reported in US7700553B2, “Selective inhibition of NF-κB activation by peptides designed to disrupt nemo oligomerization” (priority 2003, dated 2010).
One block for each substance: values may come before it. Ends that are not written are not given here. BODIPY = not defined here

Assays:
[1] = system: LPS-induced NF-κB activation in 70Z/3-C3 cells; test: NF-κB inhibition assay, second more stringent procedure (peptide washed out, 24 h growth before LPS); type: cell-based, murine; settings: 10 μM peptide
Description: FIG. 4: Specific Inhibition of NF-κB Activation in Response to LPS Depends on a Few Mutations in the Hydrophobic Core of CC2 and LZ Coiled-Coils Left panels show a helical wheel diagram of CC2 (A) and LZ (B) peptides. The view is from the top the molecule. The (a) through (g) positions, which are an essential feature of coiled coil sequence (Vinson, 2002, Mol. Cell. Biol.) represent sequential positions in each peptide sequence. The first (a) and fourth (d) positions that are generally occupied by hydrophobic amino acids constitute the hydrophobic core for parallel as well as antiparallel-coiled coils. […] NF-κB activity was measured using the β-galactosidase assay. […]
FIG. 5: Inhibition of NF-κB Activation by the LZ Peptide Occurs Through the Formation of Specific Coiled-Coil Strands. […] NF-κB activity was measured using the β-galactosidase assay. […]

[2] = system: LPS-induced NF-κB activation in 70Z/3-C3 cells; test: NF-κB inhibition assay, first procedure (NF-κB dependent β-galactosidase reporter, LPS stimulation); type: cell-based, murine; settings: 20 μM peptide; for effect on LPS-induced NF-κB activation (in words): 2 h, then 5 h LPS
Protocol: The resulting cell line, 70Z3-C3, was incubated for 2 hours in the absence or in the presence of 20 μM of antennapedia peptide (Ant), or BODIPY-labeled antennapedia peptide (BODIPY-Ant), or BODIPY-labeled antennapedia peptide coupled to CC2 (BODIPY-Ant-CC2) or LZ (BODIPY-Ant-LZ) peptides, After peptide internalization, cells were treated for 5 hours with LPS (3 μg/ml, (+) in left panel) or untreated (right panel and (−) in left panel) and the NF-κB activity was measured by β-galactosidase assay. […] Cells were treated as in (A) but with different concentration of peptide as indicated. The potential of each peptide to inhibit LPS-induced NF-κB activation was measured by determining the IC50 value that correspond to 50% inhibition of LPS-induced NF-κB activation as compared to the control (no peptide) (C). […] Control (no peptide) or CC2, or LZ peptides, with (BODIPY-ANT-CC2, BODIPY-ANT-LZ) or without the antennapedia sequence at the N-terminus (CC2, LZ) were incubated for 2 hours with 70Z3-C3 cells followed with (+) or without (−) the LPS-treatment for 3 hours. NF-κB activity was then measured by β-galactosidase assay.
In a first procedure 2.2×10^5 70Z/3-C3 cells in 220 μl of RPMI 1640 supplemented with 10% fetal calf serum (FCS) and 50 μM β-mercaptoethanol were placed in a 96-well plate and incubated with various concentrations of peptide (0 to 20 μM) at 37° C. in 5% CO2 incubator. After two hours an equal portion (100 μl) of each cell sample transferred in two wells containing each 10^5 cells. One aliquot of cells was then treated for 5 hours with lipopolysaccharides from Salmonella abortus (Sigma) at 0.5 μg/ml final concentration, and the other one left-treated. After 5 hours, cells were centrifuged at 400×g for 5 min at room temperature and the cell pellets were washed three times with cold PBS (250 μl) by centrifugation. Cells were then lysed in the lysis buffer (25 mM tris-phosphate buffer at pH 7.8 containing 8 mM magnesium chloride, 1 mM dithioerythreitol, 1% Triton X-100, 15% glycerol and a protease inhibitor mixture (Roche)), and samples were centrifuged at 4° C. for 20 min to clarify the lysate. The supernatant was then kept on ice, and 30 μl was then assayed to measure the β-galactosidase activity with a plate luminometer (Berthold) using the galacton-star as chemiluminescent substrate (BD Biosciences Clontech, Bronstein et al., 1989). Background of reaction was measured by mixing for 1 hour 30 μl of lysis buffer with the reaction buffer (196 μl) and the galacton-star substrate (4 μl) provided by BD Biosciences.

[3] = target: T1, CC2 peptide composing the minimal oligomerization domain of NEMO (Mus musculus, UniProt O88522); test: Fluorescence anisotropy titration with CC2 peptide; type: binding, murine; settings: in vitro, fluorescence polarization
T1 construct: SKGMQLEDLRQQLQQAEEA; made in house; host or cells: chemical solid-phase peptide synthesis (Fmoc/tBu), not expressed
T1 sequence (O88522 248-287): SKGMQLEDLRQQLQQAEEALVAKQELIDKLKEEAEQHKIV
Protocol: FIG. 7: Association of Ant-CC2 and Ant-LZ Peptides to the CC2 Peptide (A) Direct titration of BODIPY-Ant-CC2 (1 μM) with CC2 by fluorescence anitropy. The concentration of CC2 was determined by amino acid analysis. Anisotropy values of BODIPY-Ant-CC2 in milliunits (mA) were plotted against an increasing concentration of the CC2 peptide. […] The two dashed lines represent a stoichiometric titration and intersect at an CC2 concentration of […]. Given the 1 μM concentration of the BODIPY-Ant-CC2, this gives a complex stoechiometrie of 0.8. (B) Direct titration of BODIPY-Ant-LZ (0.1 μM with CC2 by fluorescence anitropy. The anisotropy values of the BODIPY-Ant-LZ alone (white bar) or in the presence of the CC2 peptide (30 μM, grey bar; 100 μM, black bar) are given in milliunits (mA).
Anisotropy measurements were performed with a PTI Quantamaster fluorometer equipped with polarizers for the excitation and emission beams. This instrument uses a PMT in the L-configuration. […] Steady-state fluorescence anisotropy was expressed as millianisotropy (mA) and was calculated according to the equations: (1) A=(IVV−GIVH)/(IVV+2GIVH); (2) G=IHV/IHH; where A is anisotropy, G is a correction factor for wavelength-dependent distortion and I is the fluorescence intensity component (subscript referring to the vertical and horizontal positioning at the excitation and emission polarizers, respectively). […]

Substance: B-CRQIKIWFQNRRMKWKKLKAQADIYKADFQAERHAREKLVEKKEYSQEQLEQSQREFNKL (C(BODIPY)RQIKIWFQNRRMKWKKLKAQADIYKADFQAERHAREKLVEKKEYSQEQLEQSQREFNKL-NH2; not fully specified (N-terminus); printed as B-CRQIKIWFQNRRMKWKKLKAQADIYKADFQAERHAREKLVEKKEYSQEQLEQSQREFNKL; reading uncertain) [BODIPY-Ant-LZ (Mu)]
inhibition of LPS-induced NF-κB activation compared to the control [1]: 15%

Substance: B-CRQIKIWFQNRRMKWKKSKGMQLEDLRQQGQQAEEAGVAKQELGDKLKEEAEQHKIV (C(BODIPY)RQIKIWFQNRRMKWKKSKGMQLEDLRQQGQQAEEAGVAKQELGDKLKEEAEQHKIV-NH2; not fully specified (N-terminus); printed as B-CRQIKIWFQNRRMKWKKSKGMQLEDLRQQGQQAEEAGVAKQELGDKLKEEAEQHKIV; reading uncertain) [BODIPY-Ant-CC2 (Mu)]
effect on LPS-induced NF-κB activation (in words) [1]: did not affect the NF-κB activation

binding to the CC2 peptide (in words) [3]: binds in vitro to the CC2 peptide
Substance: B-CRQIKIWFQNRRMKWKKLKAQADIYKADFQAERHAREKLVEKKEYLQEQLEQLQREFNKL (C(BODIPY)RQIKIWFQNRRMKWKKLKAQADIYKADFQAERHAREKLVEKKEYLQEQLEQLQREFNKL-NH2; not fully specified (N-terminus); reading uncertain) [BODIPY-Ant-LZ (WT)]
effect on LPS-induced NF-κB activation (in words) [2]: decreased significantly the NF-κB activation
effect on LPS-induced NF-κB activation (in words) ([2]; listed as “Leucine zipper” peptide): completely eliminates cell response
basal NF-κB activity in the absence of LPS (in words) ([2]; no LPS): without affecting the intrinsic basal NF-κB activity
